{"source": "paper PMC5078025", "about": "“Necrosis-inducing peptide has the beneficial effect on killing tumor cells through neuropilin (NRP-1) targeting” (Oncotarget, 2016)", "key": {"CT26 cells": {"tested_on": "CT26 cells", "test": "XTT cell viability / killing activity in CT26 cells", "assay_type": "cell-based", "conditions": "CT26 cells in vitro, TU:MTDs 0 ~ 20 μM, 30 minutes", "protocol": "Figure 1 Identification of TU17:MTD as a tumor targeting peptide (A) Schematic diagram of the fusion peptides consisting of the tumor-homing motif, linker, and mitochondrial targeting domain (MTD). (B) Tumors were generated over 2 weeks after s.c. injection of CT26 cells into the backs of BALB/c mice. When tumor volumes reached palpable size, the indicated TU:MTDs (100 μl of 1 mM TU:MTDs) or PBS were administrated i.v. twice or three times. […] Arrows indicate the points of peptide injection. P values < 0.02 (control group vs TU17:MTD at day 5, 6, 7, 8, and 9) (C) HCT116, HeLa, A549, MCF-7, PC3, and BJAB cells were treated with TU17:MTD (0 ~ 20 μM) for 30 minutes, and cell viability was monitored using XTT assays. *P < 0.05 (D) Primary splenocytes and macrophages were treated with TU17:MTD (0 ~ 20 μM) for 30 minutes, and cell viability was monitored by XTT assay. *P < 0.05 (E) CT26 cells were treated with R8:MTD, TU17:MTD, TU17-2:MTD or TU17:MTD^4A (0 ~ 40 μM) for 4 hours, and cell viability was monitored by XTT assay. Results in C to E are expressed as means ± SD (triplicates), and are representative of at least two independent experiments. P values are for experimental groups versus controls and were calculated using Dunnett's t-test. *P < 0.05.\nFigure 5 Anti-NRP-1 antibody blocks TU17:MTD-induced necrosis (A) CT26 cells (2 × 10^4 cells/cm^2) were treated with TU17:MTD-FAM (500 nM) peptide or TU17^mut:MTD (500 nM) peptide. […] The viability was measured by using the XTT assay. *P < 0.05, **P < 0.01. […] The percentage of FAM-positive cells (%) were determined (n = over 200 cells). *P < 0.05, ***P < 0.001.\nCells were cultured in 96 well plates (2 × 10^5) overnight and treated with TU:MTDs. Cell viabilities were assessed using a XTT-based colorimetric assay kit, according to the manufacturer's instructions. […]\nSupplementary FigureS1: Killing activity of TU:MTDs in CT26 cells. CT26 cells were treated with TU:MTDs (0 ~ 20 μM) for 30 minutes, and cell viability was monitored using XTT assays. […]"}, "BALB/c mice": {"tested_on": "BALB/c mice", "test": "Toxicity and movement activity after i.v. injection", "conditions": "for Movement Activities: BALB/c (around 20 gm) mice, i.v. single dose 75 μl of 1 mM, within 30 minutes; for toxicity by mouse movements: BALB/c mice, i.v. single dose 75 μl of 1 mM per mouse, movements within 30 minutes, observed up to one week", "protocol": "To design a MTD peptide anti-cancer drug, the MTD peptide was fused to various known tumor-homing motifs through its N-terminal or C-terminal region, and a linker was introduced between these two motifs to impart flexibility and minimize steric hindrance (Figure 1A, Supplementary Table S1). The MTD peptides fused with tumor-homing motifs (hereafter designated TU:MTDs) were synthesized as linear or cyclic entities using L-amino acids (Supplementary Table S1), and were evaluated for their killing activity using CT26 cells in vitro (Supplementary Figure S1). […] Thus, BALB/c mouse movements were also evaluated within 30 minutes of the intravenous injection of a single dose of 75 μl of 1 mM TU:MTDs per mouse. […] We also searched for a TU:MTD with a potent in vivo effect by observing tumor volumes in three BALB/c mice bearing CT26 adenocarcinoma that were injected with 100 μl of 1 mM TU:MTDs per day for 2 or 3 consecutive days (Figure 1B). […] The tumor-homing motif of TU17:MTD has a “RPARPAR” sequence containing the C-end rule (CendR) element that has known to bind to neuropilin-1 (NRP-1), although the “RPARPAR” sequence is located at the N-terminus of the MTD rather than at the C-terminus. […]\n1 mM) were i.v. injected into BALB/c (around 20 gm) mice at a single dose. “Slow” means not moving around in the cage.\n“Normal” means normally moving around in the cage. “Toxic” means necrosis in tail vein within 2 ~ 3 days after injection.\nAbbreviation: NR; no regression, ND; not determined. […]"}}, "note": "Bridge positions count the residues as written; N and C are the ends. Ends that are not written are not given here.", "data": [{"sequence": "CNGRCVSGCAGRCGGKLLNLISKLF [TU2:MTD]", "values": [{"measurement": "morphological features of necrosis", "setting": "CT26 cells", "value": "induced the typical morphological features of necrosis"}, {"measurement": "Movement Activities", "setting": "BALB/c mice", "value": "Normal"}, {"measurement": "toxicity by mouse movements", "setting": "BALB/c mice", "value": "no apparent toxicities"}]}, {"sequence": "KLLNLISKLFCRGDKRLYDC (disulfide 11-20 (inferred)) [TU11:MTD]", "values": [{"measurement": "morphological features of necrosis", "setting": "CT26 cells", "value": "induced the typical morphological features of necrosis"}, {"measurement": "Movement Activities", "setting": "BALB/c mice", "value": "Slow"}, {"measurement": "toxicity by mouse movements", "setting": "BALB/c mice", "value": "toxic"}]}]}
